Measured values from patent publication US8946225B2, “Derivatives of 2H pyridazin-3-ones, their preparation and their use as SCD-1 inhibitors” (Pierre Fabre Medicament, priority 2009, dated 2015).

Legend:
SCD-1 = molecular target: T1, SCD-1 (Homo sapiens, UniProt O00767); assay: Human enzymatic activity of SCD-1 from microsomes of HepG2 cells (conversion of [14C] stearic acid to oleic acid, HPLC); type: biochemical; conditions: microsomal fraction of HepG2 cells, 62 μM stearic acid, 20 minutes at 37° C., vs vehicle 0.1% DMSO; read-out: HSCD-1 (HEPG2) IC50
T1 construct: addition of 125 μg of microsomal fraction of HepG2 cells; host or cells: HepG2 human hepatocarcinoma cells (microsomal fraction)
T1 sequence (O00767 1-359): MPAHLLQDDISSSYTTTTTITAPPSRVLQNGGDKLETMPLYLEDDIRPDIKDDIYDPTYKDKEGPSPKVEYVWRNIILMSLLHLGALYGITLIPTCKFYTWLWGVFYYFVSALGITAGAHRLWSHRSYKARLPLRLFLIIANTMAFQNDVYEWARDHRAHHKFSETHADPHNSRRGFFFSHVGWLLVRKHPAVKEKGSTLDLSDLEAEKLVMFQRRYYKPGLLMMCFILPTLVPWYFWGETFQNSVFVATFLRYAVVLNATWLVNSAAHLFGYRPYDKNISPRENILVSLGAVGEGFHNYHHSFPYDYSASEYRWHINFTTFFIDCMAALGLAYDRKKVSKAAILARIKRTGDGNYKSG
Procedure: In vitro: Human enzymatic activity of SCD-1 from microsomes of HepG2 cells after treatment with the inhibitor compounds (% inhibition).
HepG2 cells of human hepatocarcinoma (ATCC, HB-8065) are cultured at confluence then trypsinated. The cell residue is solubilized in 10 mM Tris buffer (pH 7.4) sucrose (250 mM) DTT (1 mM) then the cells are lysed by sonication. The microsomes are obtained after centrifuging at 10,000 g for 20 minutes at 4° C. followed by centifrugation of the supernatant at 100,000 g for 60 minutes at 4° C. The residue is solubilized in 10 mM Tris buffer (pH 7.4) sucrose (250 mM) at 4° C. and the microsomal proteins are assayed and stored at −196° C. (liquid nitrogen).
The enzymatic reaction measures the conversion of stearic acid (C18:0 fatty acid) into oleic acid (C18:1 fatty acid) by SCD-1. The enzymatic reaction is initiated by the addition of 125 μg of microsomal fraction of HepG2 cells to tubes (total reaction volume of 500 μl) containing 62 μM stearic acid (45 μM stearic acid and 17 μM [^14C] stearic acid) in 100 mM phosphate buffer (pH 7.16) with 7.2 mM ATP, 0.54 mM CoA, 6 mM MgCl2, 0.8 mM NADH and the inhibitor compound or vehicle (0.1% DMSO). The tubes are incubated for 20 minutes at 37° C. then the enzymatic reaction is halted by the addition of KOH (12%) and saponification for 30 minutes at 80° C. After acidification (3N HCl), the fatty acids are extracted twice with ethyl ether, evaporated under nitrogen before being solubilized in methanol/dichloromethane (3:1). The reaction product (C18:1) is separated from the reaction substrate (C18:0) by HPLC (Perkin Elmer, C18 reverse phase column) coupled with an in-line radioactivity detector (FlowOne). Enzymatic activity is measured in picomoles of stearic acid converted to oleic acid per minute and per mg of protein. For each inhibitor compound, an IC50 value is determined, compared with the reference enzymatic activity (vehicle 0.1% DMSO). Sterculic acid is the reference inhibitor compound (Gomez F. E., Bauman D. E., Ntambi J. M., Fox B. G. Effects of sterculic acid on stearoyl-CoA desaturase in differentiating […] adipocytes. Biochem Biophys Res Commun. 300 316-326 (2003).

Structure (SMILES) | IC50 (SCD-1) [nM] | melting point [°C]
Cn1nccc(/C=C/C(=O)N2CCC(Oc3cc(C(F)(F)F)ccc3Cl)CC2)c1=O [Example 36, 4-{(E)-3-[4-(2-Chloro-5-trifluoromethyl-phenoxy)-piperidin-1-yl]-3-oxo-propenyl}-2-methyl-2H-pyridazin-3-one] | 300 to 1000 | 154
Cn1ncc(OCC(=O)N2CCC(Oc3cc(C(F)(F)F)ccc3Cl)CC2)cc1=O [Example 24, 5-{2-[4-(2-Chloro-5-trifluoromethyl-phenoxy)-piperidin-1-yl]-2-oxo-ethoxy}-2-methyl-2H-pyridazin-3-one] | 1000 to 3000 | 176
O=C(CNc1ccn[nH]c1=O)N1CCC(Oc2cc(C(F)(F)F)ccc2Cl)CC1 [Example 40, 4-{2-[4-(2-Chloro-5-trifluoromethyl-phenoxy)-piperidin-1-yl]-2-oxo-ethylamino}-2H-pyridazin-3-one] | 10 to 100 | 222
Cn1nccc(NC(=O)N2CCC(Oc3cc(F)cc(C(F)(F)F)c3)CC2)c1=O [Example 67, 4-(3-fluoro-5-trifluoromethyl-phenoxy)-piperidine-1-carboxylic acid (2-methyl-3-oxo-2,3-dihydro-pyridazin-4-yl)-amide] | 300 | 115
Cn1ncc(OCC(=O)N2CCC(Oc3cc(Cl)ccc3Cl)CC2)cc1=O [Example 25, 5-{2-[4-(2,5-Dichloro-phenoxy)-piperidin-1-yl]-2-oxo-ethoxy}-2-methyl-2H-pyridazin-3-one] | 1000 to 10000 | 163
O=C(CNc1ccn[nH]c1=O)N1CCC(Oc2cc(Cl)ccc2Cl)CC1 [Example 41, 4-{2-[4-(2,5-dichloro-phenoxy)-piperidin-1-yl]-2-oxo-ethylamino}-2H-pyridazin-3-one] | 10 to 100 | –
Cn1nccc(NC(=O)N2CCC(Oc3cc(C(F)(F)F)ccc3Cl)CC2)c1=O [Example 52, 4-(2-Chloro-5-trifluoromethyl-phenoxy)-piperidine-1-carboxylic acid (2-methyl-3-oxo-2,3-dihydro-pyridazin-4-yl)-amide] | 30 to 100 | 148
Cn1nccc(NCC(=O)N2CC(Oc3ccccc3C(F)(F)F)C2)c1=O [Example 27, 2-Methyl-4-{2-oxo-2-[3-(2-trifluoromethyl-phenoxy)-azetidin-1-yl]-ethylamino}-2H-pyridazin-3-one] | 3000 to 10000 | 122
CC(C)CCCn1nccc(NCC(=O)N2CCC(Oc3cc(C(F)(F)F)ccc3Cl)CC2)c1=O [Example 47, 4-{2-[4-(2-Chloro-5-trifluoromethyl-phenoxy)-piperidin-1-yl]-2-oxo-ethylamino}-2-(4-methyl-pentyl)-2H-pyridazin-3-one] | 300 to 1000 | –
Cn1nccc(NC(=O)N2CCC(Oc3cc(Br)ccc3Cl)CC2)c1=O [Example 63, 4-(2-chloro-5-bromo-phenoxy)-piperidine-1-carboxylic acid (2-methyl-3-oxo-2,3-dihydro-pyridazin-4-yl)-amide] | 30 | 124
Cn1nc(NC(=O)N2CCC(Oc3cc(C(F)(F)F)ccc3Cl)CC2)ccc1=O [Example 74, 4-(2-Chloro-5-trifluoromethyl-phenoxy)-piperidine-1-carboxylic acid (1-methyl-6-oxo-1,6-dihydro-pyridazin-3-yl)-amide] | 10 to 100 | 155
Cn1nccc(NC(=O)C(=O)N2CCC(Oc3cc(C(F)(F)F)ccc3Cl)CC2)c1=O [Example 35, 2-[4-(2-Chloro-5-trifluoromethyl-phenoxy)-piperidin-1-yl]-N-(2-methyl-3-oxo-2,3-dihydro-pyridazin-4-yl)-2-oxo-acetamide] | 100 to 1000 | 205
Cc1ccc(C)c(OC2CCN(C(=O)Nc3ccnn(C)c3=O)CC2)c1 [Example 55, 4-(2,5-dimethyl-phenoxy)-piperidine-1-carboxylic acid (2-methyl-3-oxo-2,3-dihydro-pyridazin-4-yl)-amide] | 100 to 1000 | 108
Cc1ccccc1OC1CCN(C(=O)Nc2ccnn(C)c2=O)CC1 [Example 59, 4-(2-methyl-phenoxy)-piperidine-1-carboxylic acid (2-methyl-3-oxo-2,3-dihydro-pyridazin-4-yl)-amide] | ~1000 | 124
CC#CCn1nccc(NCC(=O)N2CCC(Oc3cc(C(F)(F)F)ccc3Cl)CC2)c1=O [Example 46, 2-But-2-ynyl-4-{2-[4-(2-chloro-5-trifluoromethyl-phenoxy)-piperidin-1-yl]-2-oxo-ethylamino}-2H-pyridazin-3-one] | 1000 | –
O=C(CNc1ccnn(Cc2ccccc2)c1=O)N1CCC(Oc2ccccc2C(F)(F)F)CC1 [Example 48, 2-Benzyl-4-{2-oxo-2-[4-(2-trifluoromethyl-phenoxy)-piperidin-1-yl]-ethylamino}-2H-pyridazin-3-one] | 1000 to 10000 | –
O=C(CNc1ccn[nH]c1=O)N1CCC(Oc2cccc(C(F)(F)F)c2)CC1 [Example 44, 4-{2-[4-(3-trifluoromethyl-phenoxy)-piperidin-1-yl]-2-oxo-ethylamino}-2H-pyridazin-3-one] | 100 to 1000 | –
O=C(CNc1ccnn(CCCC(F)(F)F)c1=O)N1CCC(Oc2cc(C(F)(F)F)ccc2Cl)CC1 [Example 45, 4-{2-[4-(2-Chloro-5-trifluoromethyl-phenoxy)-piperidin-1-yl]-2-oxo-ethylamino}-2-(4,4,4-trifluoro-butyl)-2H-pyridazin-3-one] | 100 to 1000 | –
Cn1nccc(CCC(=O)N2CCC(Oc3cc(C(F)(F)F)ccc3Cl)CC2)c1=O [Example 37, 4-{3-[4-(2-Chloro-5-trifluoromethyl-phenoxy)-piperidin-1-yl]-3-oxo-propyl}-2-methyl-2H-pyridazin-3-one] | 300 | –
O=C(CNc1ccn[nH]c1=O)N1CCC(Oc2cc(Br)ccc2Cl)CC1 [Example 42, 4-{2-[4-(5-Bromo-2-Chloro-phenoxy)-piperidin-1-yl]-2-oxo-ethylamino}-2H-pyridazin-3-one] | 10 to 100 | –
O=C(CNc1ccn[nH]c1=O)N1CCC(Oc2cc(F)c(F)cc2Br)CC1 [Example 43, 4-{2-[4-(2-Bromo-4,5-difluoro-phenoxy)-piperidin-1-yl]-2-oxo-ethylamino}-2H-pyridazin-3-one] | 10 to 100 | –
CCCCCCCCC1=C(CCCCCCCC(=O)O)C1 [Sterculic acid, reference compound] | 300 | –
CN(CC(=O)N1CCC(Oc2ccccc2Cl)CC1)c1ccnn(C)c1=O [Example 18, 4-({2-[4-(2-Chloro-phenoxy)-piperidin-1-yl]-2-oxo-ethyl}-methyl-amino)-2-methyl-2H-pyridazin-3-one] | 3000 to 10000 | –
Cn1ncc(NCC(=O)N2CCC(Oc3cc(F)ccc3Cl)CC2)cc1=O [Example 20, 5-{2-[4-(2-Chloro-5-fluoro-phenoxy)-piperidin-1-yl]-2-oxo-ethylamino}-2-methyl-2H-pyridazin-3-one] | ~10000 | –
C[C@@H](Nc1ccnn(C)c1=O)C(=O)N1CCC(Oc2cc(C(F)(F)F)ccc2Cl)CC1 [Example 38, 4-{(R)-2-[4-(2-Chloro-5-trifluoromethyl-phenoxy)-piperidin-1-yl]-1-methyl-2-oxo-ethylamino}-2-methyl-2H-pyridazin-3-one] | – | 70
